The values that follow are results of earlier work, collected in patent US20160199396A1 (TEVA Pharmaceutical Industries Ltd., priority 2013, published 2016).

For this data set the following is noted: background statement.

With `CC(C)c1nc(CN(C)C(=O)N[C@H](C(=O)N[C@@H](Cc2ccccc2)C[C@H](O)[C@H](Cc2ccccc2)NC(=O)OCc2cncs2)C(C)C)cs1` [Ritonavir, 1,3-thiazol-5-ylmethyl N-[(2S,3S,5S)-3-hydroxy-5-[(2S)-3-methyl-2-{[methyl({[2-(propan-2-yl)-1,3-thiazol-4-yl]methyl})carbamoyl]amino}butanamido]-1,6-diphenylhexan-2-yl]carbamate], the “BCS (biopharmaceutical classification system) class” value is recorded as “class IV”.
